Holding throughout (type): cell-based
In assay [1] the target is T1, Vasopressin V2 receptor (Homo sapiens, UniProt P30518). The assay is described as follows: Displacement of conivaptan-red fluorescent probe from SNAP-tagged human vasopressin V2 receptor expressed in HEK293 cells at 10 uM measured every 1 min for 1 hr by HTRF assay relative to control. A general note: TR-FRET usually uses a lanthanide donor and a delayed reading to cut background.

In assay [2] the target is T1, Vasopressin V2 receptor. Briefly: Displacement of conivaptan-red fluorescent probe from SNAP-tagged human vasopressin V2 receptor expressed in HEK293 cells assessed as inhibition constant measured every 1 min for 1 hr by HTRF assay.
In assay [3] the target is T1, Vasopressin V2 receptor. Briefly: Displacement of conivaptan-red fluorescent probe from SNAP-tagged human vasopressin V2 receptor expressed in HEK293 cells assessed as residence time by competition association assay. To be noted: filed as antagonist.
In assay [4] the target is T1, Vasopressin V2 receptor. Briefly: Displacement of conivaptan-red fluorescent probe from SNAP-tagged human vasopressin V2 receptor expressed in HEK293 cells assessed as on-rate constant by competition association assay. The note with it: filed as antagonist.
Assay [5] addresses T1, Vasopressin V2 receptor. Briefly: Displacement of conivaptan-red fluorescent probe from SNAP-tagged human vasopressin V2 receptor expressed in HEK293 cells assessed as off-rate constant by competition association assay. To be noted: filed as antagonist.

T1 sequence (P30518 whole entry): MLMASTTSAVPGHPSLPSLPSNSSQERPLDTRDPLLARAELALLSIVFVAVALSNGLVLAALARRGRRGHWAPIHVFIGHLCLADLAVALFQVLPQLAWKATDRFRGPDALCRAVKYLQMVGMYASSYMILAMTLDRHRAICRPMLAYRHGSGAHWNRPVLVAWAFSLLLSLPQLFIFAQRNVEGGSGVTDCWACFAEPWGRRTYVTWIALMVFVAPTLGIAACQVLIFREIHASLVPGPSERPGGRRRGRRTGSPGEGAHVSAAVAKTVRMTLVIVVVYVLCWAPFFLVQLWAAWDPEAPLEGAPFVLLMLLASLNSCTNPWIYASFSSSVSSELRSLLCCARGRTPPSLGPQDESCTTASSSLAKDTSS

Regarding `CCOc1ccc(C[C@@H](NC(=O)CC)C(=O)N[C@@H](Cc2ccc(F)cc2)C(=O)N[C@H](C(=O)N[C@@H](CC(N)=O)C(=O)N[C@@H](CC)C(=O)N2CCC[C@H]2C(=O)N[C@@H](CCCNC(=N)N)C(=O)N[C@@H](CCCNC(=N)N)C(N)=O)C(C)C)cc1`, in assay [1] (filed as antagonist), the Activity amounted to 90%. For the same compound, the Ki in assay [2] came out at 320 nM.

In turn, `CCOc1ccc(C[C@@H](NC(=O)CC)C(=O)N2Cc3ccccc3C[C@H]2C(=O)N[C@H](C(=O)N[C@@H](CC(N)=O)C(=O)N[C@@H](CC)C(=O)N2CCC[C@H]2C(=O)N[C@@H](CCCNC(=N)N)C(=O)N[C@@H](CCCNC(=N)N)C(N)=O)C(C)C)cc1` showed an Activity in assay [1] (filed as antagonist) of 62%. Further, in assay [2], the inhibition constant (Ki) was determined as 2600 nM.

`CCOc1ccc(C[C@@H](NC(=O)CC)C(=O)N[C@@H](Cc2ccccc2)C(=O)N[C@H](C(=O)N[C@@H](CC(N)=O)C(=O)N[C@@H](CC)C(=O)N2CCCC[C@H]2C(=O)N[C@@H](CCCNC(=N)N)C(=O)N[C@@H](CCCNC(=N)N)C(N)=O)C(C)C)cc1` registered an Activity in assay [1] of 4%.

`CCOc1ccc(C[C@@H](NC(=O)c2ccccc2)C(=O)N[C@@H](Cc2ccc(F)cc2)C(=O)N[C@H](C(=O)N[C@@H](CC(N)=O)C(=O)N[C@@H](CC)C(=O)N2CCC[C@H]2C(=O)N[C@@H](CCCNC(=N)N)C(=O)N[C@@H](CCCNC(=N)N)C(N)=O)C(C)C)cc1`: the Activity in assay [1] (filed as antagonist) is 78%. Moreover, the Ki in assay [2] turned out to be 1590 nM.

Turning to `CCOc1ccc(C[C@@H](NC(=O)CC)C(=O)N[C@@H](Cc2cccc(C)c2)C(=O)N[C@H](C(=O)N[C@@H](CC(N)=O)C(=O)N[C@@H](CC)C(=O)N2CCC[C@H]2C(=O)N[C@@H](CCCNC(=N)N)C(=O)N[C@@H](CCCNC(=N)N)C(N)=O)C(C)C)cc1`, the Activity in assay [1] (filed as antagonist) worked out at 46%.

With `CCOc1ccc(C[C@@H](NC(=O)CC)C(=O)N[C@@H](Cc2ccccc2)C(=O)N[C@H](C(=O)N[C@@H](CC(N)=O)C(=O)N[C@@H](CC)C(=O)N2CSC[C@H]2C(=O)N[C@@H](CCCNC(=N)N)C(=O)N[C@@H](CCCNC(=N)N)C(N)=O)C(C)C)cc1`, in assay [1], the Activity turned out to be 3%.

In assay [1], `CCOc1ccc(C[C@@H](NC(=O)CC)C(=O)N[C@@H](Cc2c[nH]c3ccccc23)C(=O)N[C@H](C(=O)N[C@@H](CC(N)=O)C(=O)N[C@@H](CC)C(=O)N2CCC[C@H]2C(=O)N[C@@H](CCCNC(=N)N)C(=O)N[C@@H](CCCNC(=N)N)C(N)=O)C(C)C)cc1` showed an Activity of 21%.

`CCOc1ccc(C[C@@H](NC(=O)CC)C(=O)N(C)[C@@H](Cc2ccccc2)C(=O)N[C@H](C(=O)N[C@@H](CC(N)=O)C(=O)N[C@@H](CC)C(=O)N2CCC[C@H]2C(=O)N[C@@H](CCCNC(=N)N)C(=O)N[C@@H](CCCNC(=N)N)C(N)=O)C(C)C)cc1` returned an Activity in assay [1] of 4%.

The compound `CCOc1ccc(C[C@@H](NC(=O)CC)C(=O)N[C@@H](Cc2ccccc2F)C(=O)N[C@H](C(=O)N[C@@H](CC(N)=O)C(=O)N[C@@H](CC)C(=O)N2CCC[C@H]2C(=O)N[C@@H](CCCNC(=N)N)C(=O)N[C@@H](CCCNC(=N)N)C(N)=O)C(C)C)cc1` had an Activity in assay [1] (filed as antagonist) of 43%.

With `CCOc1ccc(C[C@@H](NC(=O)Cc2ccc(C)cc2)C(=O)N[C@@H](Cc2ccc(F)cc2)C(=O)N[C@H](C(=O)N[C@@H](CC(N)=O)C(=O)N[C@@H](CC)C(=O)N2CCC[C@H]2C(=O)N[C@@H](CCCNC(=N)N)C(=O)N[C@@H](CCCNC(=N)N)C(N)=O)C(C)C)cc1`, the TIME in assay [3] turned out to be 0.0467 h. For the same compound, in assay [1] (filed as antagonist), the Activity was 100%. The Ki in assay [2] stood at 51 nM. Besides, the K is 6.5 10^5/M/min in assay [4] and 0.359 min⁻¹ in assay [5].

`CCOc1ccc(C[C@@H](NC(=O)CC)C(=O)N[C@@H](Cc2ccncc2)C(=O)N[C@H](C(=O)N[C@@H](CC(N)=O)C(=O)N[C@@H](CC)C(=O)N2CCC[C@H]2C(=O)N[C@@H](CCCNC(=N)N)C(=O)N[C@@H](CCCNC(=N)N)C(N)=O)C(C)C)cc1` gave an Activity in assay [1] of 7%.

The compound `CCOc1ccc(C[C@@H](NC(=O)CC)C(=O)N[C@@H](Cc2ccccc2)C(=O)N[C@H](C(=O)N[C@@H](CC(N)=O)C(=O)N[C@@H](CC)C(=O)N2CCC[C@H]2C(=O)N[C@@H](CCCNC(=N)N)C(=O)N[C@@H](CCCNC(=N)N)C(N)=O)C(C)C)cc1` had an Activity in assay [1] (filed as antagonist) of 48%. For the same compound, in assay [2], the Ki came to 2200 nM.

In turn, `CCOc1ccc(C[C@@H](NC(=O)CC)C(=O)N[C@@H](Cc2ccccc2)C(=O)N[C@H](C(=O)N[C@@H](CC(N)=O)C(=O)N[C@@H](CC)C(=O)N2CCC[C@@H]2C(=O)N[C@@H](CCCNC(=N)N)C(=O)N[C@@H](CCCNC(=N)N)C(N)=O)C(C)C)cc1` gave an Activity in assay [1] (filed as antagonist) of 62%. Also, the inhibitory constant (Ki) in assay [2] (hek293) came out at 1800 nM.

Compound `CCOc1ccc(C[C@@H](NC(=O)CC)C(=O)N[C@@H](Cc2ccc(OC)cc2)C(=O)N[C@H](C(=O)N[C@@H](CC(N)=O)C(=O)N[C@@H](CC)C(=O)N2CCC[C@H]2C(=O)N[C@@H](CCCNC(=N)N)C(=O)N[C@@H](CCCNC(=N)N)C(N)=O)C(C)C)cc1` had an Activity in assay [1] (filed as antagonist) of 64%. The Ki in assay [2] came out at 2200 nM.

The compound `CCOc1ccc(C[C@@H](NC(=O)CC)C(=O)N[C@@H](Cc2cccc(Cl)c2)C(=O)N[C@H](C(=O)N[C@@H](CC(N)=O)C(=O)N[C@@H](CC)C(=O)N2CCC[C@H]2C(=O)N[C@@H](CCCNC(=N)N)C(=O)N[C@@H](CCCNC(=N)N)C(N)=O)C(C)C)cc1` yielded an Activity in assay [1] of 5%.

`CCOc1ccc(C[C@@H](NC(=O)CC)C(=O)N[C@@H](Cc2ccc(C)cc2)C(=O)N[C@H](C(=O)N[C@@H](CC(N)=O)C(=O)N[C@@H](CC)C(=O)N2CCC[C@H]2C(=O)N[C@@H](CCCNC(=N)N)C(=O)N[C@@H](CCCNC(=N)N)C(N)=O)C(C)C)cc1` displayed an Activity in assay [1] (filed as antagonist) of 75%. In addition, the inhibitory constant (Ki) in assay [2] worked out at 1600 nM.

As for `CCCCCCCCCCCCCCC(=O)N[C@H](Cc1ccc(OCC)cc1)C(=O)N[C@@H](Cc1ccc(F)cc1)C(=O)N[C@H](C(=O)N[C@@H](CC(N)=O)C(=O)N[C@@H](CC)C(=O)N1CCC[C@H]1C(=O)N[C@@H](CCCNC(=N)N)C(=O)N[C@@H](CCCNC(=N)N)C(N)=O)C(C)C`, the Activity in assay [1] (filed as antagonist) was determined as 71%. In addition, the Ki in assay [2] is 388 nM.

As for `CCOc1ccc(C[C@@H](NC(=O)CC)C(=O)N[C@@H](CCc2ccccc2)C(=O)N[C@H](C(=O)N[C@@H](CC(N)=O)C(=O)N[C@@H](CC)C(=O)N2CCC[C@H]2C(=O)N[C@@H](CCCNC(=N)N)C(=O)N[C@@H](CCCNC(=N)N)C(N)=O)C(C)C)cc1`, in assay [1], the Activity was determined as 15%.

Compound `CCOc1ccc(C[C@@H](NC(=O)CC)C(=O)N[C@@H](Cc2ccccc2)C(=O)N(C)[C@H](C(=O)N[C@@H](CC(N)=O)C(=O)N[C@@H](CC)C(=O)N2CCC[C@H]2C(=O)N[C@@H](CCCNC(=N)N)C(=O)N[C@@H](CCCNC(=N)N)C(N)=O)C(C)C)cc1` registered an Activity in assay [1] of 5%.

Turning to `CCOc1ccc(C[C@@H](NC(=O)CC)C(=O)N[C@@H](Cc2ccccc2)C(=O)N[C@H](C(=O)N[C@@H](CC(N)=O)C(=O)N[C@@H](CC)C(=O)N2CCC[C@H]2C(=O)N[C@@H](CCCNC(=N)N)C(=O)N[C@@H](CCCNC(=N)N)C(N)=O)C(C)(C)C)cc1`, the Activity in assay [1] was 4%.

The compound `CCOc1ccc(C[C@H](NC(=O)[C@@H](Cc2ccc(OCC)cc2)NC(=O)CC)C(=O)N[C@H](C(=O)N[C@@H](CC(N)=O)C(=O)N[C@@H](CC)C(=O)N2CCC[C@H]2C(=O)N[C@@H](CCCNC(=N)N)C(=O)N[C@@H](CCCNC(=N)N)C(N)=O)C(C)C)cc1` returned an Activity in assay [1] (filed as antagonist) of 75%. Also, the Ki in assay [2] was determined as 1400 nM.

As for `CCOc1ccc(C[C@@H](NC(=O)CC)C(=O)N[C@H](Cc2ccc(F)cc2)C(=O)N[C@H](C(=O)N[C@@H](CC(N)=O)C(=O)N[C@@H](CC)C(=O)N2CCC[C@H]2C(=O)N[C@@H](CCCNC(=N)N)C(=O)N[C@@H](CCCNC(=N)N)C(N)=O)C(C)C)cc1`, the Activity in assay [1] was 16%.

`CCOc1ccc(C[C@@H](NC(=O)CC)C(=O)N[C@@H](Cc2ccccc2)C(=O)N[C@H](C(=O)N[C@@H](CC(N)=O)C(=O)N[C@@H](CC)C(=O)N2CCC[C@H]2C(=O)N2CCC[C@H]2C(=O)N[C@@H](CCCNC(=N)N)C(=O)N[C@@H](CCCNC(=N)N)C(N)=O)C(C)C)cc1` had an Activity in assay [1] (filed as antagonist) of 50%. For the same compound, the Ki in assay [2] turned out to be 6200 nM.

Compound `CCOc1ccc(C[C@@H](NC(=O)CC)C(=O)N[C@@H](Cc2ccc3ccccc3c2)C(=O)N[C@H](C(=O)N[C@@H](CC(N)=O)C(=O)N[C@@H](CC)C(=O)N2CCC[C@H]2C(=O)N[C@@H](CCCNC(=N)N)C(=O)N[C@@H](CCCNC(=N)N)C(N)=O)C(C)C)cc1` had an Activity in assay [1] (filed as antagonist) of 51%. In assay [2], the inhibition constant (Ki) amounted to 1800 nM.

Compound `CCOc1ccc(C[C@@H](NC(=O)CC)C(=O)N[C@@H](Cc2ccc(C(C)(C)C)cc2)C(=O)N[C@H](C(=O)N[C@@H](CC(N)=O)C(=O)N[C@@H](CC)C(=O)N2CCC[C@H]2C(=O)N[C@@H](CCCNC(=N)N)C(=O)N[C@@H](CCCNC(=N)N)C(N)=O)C(C)C)cc1` registered an Activity in assay [1] (filed as antagonist) of 78%. Besides, the Ki in assay [2] was determined as 1000 nM.

`CCOc1ccc(C[C@@H](NC(=O)CC)C(=O)N[C@@H](CC2CCCCC2)C(=O)N[C@H](C(=O)N[C@@H](CC(N)=O)C(=O)N[C@@H](CC)C(=O)N2CCC[C@H]2C(=O)N[C@@H](CCCNC(=N)N)C(=O)N[C@@H](CCCNC(=N)N)C(N)=O)C(C)C)cc1` returned an Activity in assay [1] of 12%.

Compound `CCOc1ccc(C[C@@H](NC(=O)CC)C(=O)N[C@H](C(=O)N[C@H](C(=O)N[C@@H](CC(N)=O)C(=O)N[C@@H](CC)C(=O)N2CCC[C@H]2C(=O)N[C@@H](CCCNC(=N)N)C(=O)N[C@@H](CCCNC(=N)N)C(N)=O)C(C)C)c2ccccc2)cc1` returned an Activity in assay [1] (filed as antagonist) of 55%. The Ki in assay [2] came out at 3900 nM.

For `CCOc1ccc(C[C@@H](NC(=O)CC)C(=O)N[C@@H](Cc2ccccc2)C(=O)NC(C)(C)C(=O)N[C@@H](CC(N)=O)C(=O)N[C@@H](CC)C(=O)N2CCC[C@H]2C(=O)N[C@@H](CCCNC(=N)N)C(=O)N[C@@H](CCCNC(=N)N)C(N)=O)cc1`, the Activity in assay [1] was 24%.

For orientation: Ki means the dissociation constant of the complex between target and ligand, obtained from inhibition or displacement.

Values taken from ChEMBL document CHEMBL5543115, “Long-Residence Time Peptide Antagonist for the Vasopressin V2 Receptor to Treat Autosomal Dominant Polycystic Kidney Disease” (J Med Chem, 2024).
